Earlier results, collected in patent US20050227989A1, “Polycyclic thiazoles as potassium ion channel modulators” (ICAgen, Inc., priority 2004, published 2005).

Target: SK2 subtype channels (Rattus norvegicus, UniProt P70604)
Conditions: patch clamp; cited from earlier work

SMILES	block of SK2 channel currents
NC(=O)N1c2ccccc2C=Cc2ccccc21 [carbamazepine]	block SK2 channel currents with micromolar affinity
CN(C)CCCN1c2ccccc2Sc2ccc(Cl)cc21 [chlorpromazine]	block SK2 channel currents with micromolar affinity
Nc1c2c(nc3ccccc13)CCCC2 [tacrine]	block SK2 channel currents with micromolar affinity
